Laboratory results reported in patent US8022072B2, “Azolylmethylidenehydrazine derivative and use thereof” (Kaken Pharmaceutical Co., Ltd., priority 2007, dated 2011).
In brackets after ≈: the same amount, converted by molar mass.

How the values were obtained:
[1] = test system: Trichophyton rubrum KD-107; experiment: Antifungal activity evaluation test, MIC, Trichophyton rubrum KD-107; assay type: cell-based; details: KD107, 168 h, Sabouraud Dextrose Broth, 30° C., 7 days, visual, read-out: MIC T. rub. KD-107
Method: (§1) The minimum inhibitory concentration (MIC) for Trichophyton mentagrophytes, Trichophyton rubrum, and Malassezia furfur was measured according to the following procedure. • Test compound solution: A test compound was dissolved in dimethyl sulfoxide (DMSO) at a concentration of 5 mg/mL as a stock solution. […] Then, as a test medium, a fungal solution of Trichophyton species was 100-fold diluted with Sabouraud Dextrose Broth (Difco), and a fungal solution of Malassezia furfur IFO-0656 was 100-fold diluted with MU medium to give each inoculum (2×10^4 cells/mL). • Measurement of MIC of Trichophyton fungi: Sabouraud Dextrose Broth (Difco) was dispensed by 100 μL to a given well of a 96 well flat microplate. Then, a test compound solution (2 μL) was added, and the mixture was thoroughly mixed with a plate mixer. A fungal solution (100 μL) was inoculated and cultured at 30° C. for 7 days. The presence or absence of the cell growth was visually observed, and the minimum medicament concentration at which the cell growth was prevented was taken as MIC (μg/mL). • Measurement of MIC of Malassezia furfur: Since the urease activity of this fungus and the fungus growth rate are co-related, MIC was evaluated by the following method using urease activity as an index. MU medium was dispensed by 100 μL to a given well of a 96 well flat microplate. Then, a test compound solution (2 μL) was added, and the mixture was thoroughly mixed with a plate mixer. A fungal solution (100 μL) was inoculated and cultured at 30° C. The culture was stopped on day 4 or 5 of culture when the color tone of the MU medium changes from yellow to red in visual observation of the fungus growth in a well free of addition of a test substance. Then the plate was stirred until the fungus became uniform, and the urease activity was measured based on the measurement of absorbance at 550 nm using a plate reader.

[2] = test system: Trichophyton rubrum KD-101; experiment: Antifungal activity evaluation test, MIC, Trichophyton rubrum KD-101; assay type: cell-based; details: KD101, 168 h, Sabouraud Dextrose Broth, 30° C., 7 days, visual, read-out: MIC T. rub. KD-101
Method: as §1

[3] = test system: Trichophyton mentagrophytes KD-04; experiment: Antifungal activity evaluation test, MIC, Trichophyton mentagrophytes KD-04; assay type: cell-based; details: KD04, 168 h, Sabouraud Dextrose Broth, 30° C., 7 days, visual, read-out: MIC T. men. KD-04
Method: as §1

[4] = test system: Trichophyton mentagrophytes SM-110; experiment: Antifungal activity evaluation test, MIC, Trichophyton mentagrophytes SM-110; assay type: cell-based; details: SM110, 168 h, Sabouraud Dextrose Broth, 30° C., 7 days, visual, read-out: MIC T. men. SM-110
Method: as §1

[5] = test system: Malassezia furfur IFO-0656; experiment: Antifungal activity evaluation test, MIC by urease activity, Malassezia furfur IFO-0656; assay type: cell-based; details: IFO0656, 96 h, MU medium, 30° C., day 4 or 5, urease activity of 20% or below, read-out: MIC M. fur. IFO-0656
Method: as §1

[6] = test system: Trichophyton mentagrophytes KD-04; experiment: Influence of keratin addition on anti-Trichophyton activity; assay type: cell-based; details: Trichophyton mentagrophytes, KD04, 168 h, 30° C., 7 days
Method: The MIC increase rate by the addition of keratin to a medium was measured by the following procedure. • Test compound solution: A test compound was dissolved in dimethyl sulfoxide (DMSO) at a concentration of 5 mg/mL as a stock solution. Diluting this solution with DMSO, a 2-fold dilution series was prepared. • Test strain: Trichophyton mentagrophytes KD-04 was used. Preparation of Fungal Inoculum: the Above-Mentioned Strain was suspended in 0.05% Tween 80-containing physiological saline, and adjusted to a fungus concentration of 2×10^6 cells/mL using a counting chamber. […] The physiological saline was removed, and the mixture was further washed once with physiological saline (3 mL). The physiological saline was removed, and a test compound solution (10 μL) and Sabouraud Dextrose Broth (Difco) (500 μL) were added to keratin, and the mixture was sufficiently stirred. Then, inoculum (500 μL) of T. mentagrophytes KD-04 was added, and the mixture was cultured at 30° C. for 7 days. As a comparison control, an experiment similar to the above was performed under conditions free of keratin addition.

OVA-induced dermatitis = experiment: Ovalbumin (OVA)-induced dermatitis model, ear edema; assay type: in vivo, male ICR mouse; parameters: key: ratio of compound's ear edema inhibition rate to FK506's (FK506 = 1.0); details: test compound 1 w/v % (FK506 0.1 w/v %), 20 μL applied to auricle, 24 hours after induction
Method: (§2) The test compound was adjusted to 1 w/v % when in use with a solvent (acetone:olive oil=1:1, v/v)) and put to use. FK506 (control substance) was adjusted to 0.1 w/v % and used.
Male ICR mouse was sensitized by the administration of 0.2 mL of OVA-hydroxide aluminum gel suspension to the abdominal cavity. After 14 days from the sensitization, the thickness of the right auricle was measured with a micrometer (pre-value). After the measurement, 20 μL of 0.5 μg/mL OVA challenge liquid (solvent was physiological saline) was subcutaneously administered to the inside of the auricle to induce ear edema. About 5 minutes after the administration of the challenge liquid, 20 μL of the test compound was applied to the outside of the auricle. After 24 hours from the induction of ear edema, the thickness of the right auricle was measured by a method similar to the pre-value (post-value). The difference between the post-value and the pre-value of ear edema by each test compound was determined, based on which the inhibition rate was calculated. The activity of each test compound was calculated with the ear edema inhibition rate of FK506 as 1.0 (ear edema inhibition rate of each test compound/ear edema inhibition rate of FK506).

TNCB-induced dermatitis = experiment: 2,4,6-Trinitrochlorobenzene (TNCB)-induced dermatitis model, ear edema; assay type: in vivo, male BALB/c mouse; details: test compound 1 w/v % (FK506 0.1 w/v %), 20 μL applied to auricle, 24 hours after induction
Method: as §2
The fur on the abdomen of male BALB/c mouse was shaved with a hair clipper, and 100 μL of 7 w/v % TNCB sensitizing liquid (solvent was acetone:olive oil=4:1, v/v) was applied. Six days after the sensitization, the thickness of the right auricle was measured with a micrometer (pre-value). After the measurement, 10 μL of 1 w/v % TNCB challenge liquid (solvent was acetone:olive oil=1:9, v/v) was applied to the inside of the right auricle to induce ear edema. About 5 minutes after the application of the challenge liquid, 20 μL of the test compound was applied to the outside of the auricle.
After 24 hours from the induction of ear edema, the thickness of the right auricle was measured by a method similar to the pre-value (post-value). The difference between the post-value and the pre-value of ear edema by each test compound was determined, based on which the inhibition rate was calculated. The activity of each test compound was calculated with the ear edema inhibition rate of FK506 as 1.0 (ear edema inhibition rate of each test compound/ear edema inhibition rate of FK506).

[7] = T. mentagrophytes KD-04, free of keratin addition, read-out: MIC SDB alone
[8] = T. mentagrophytes KD-04, keratin 50 mg added, read-out: MIC SDB + keratin

SMILES | MIC [1] [µg/mL] | MIC [2] [µg/mL] | MIC [3] [µg/mL] | MIC [4] [µg/mL] | MIC [5] [µg/mL] | MIC [6, 7] [µg/mL] | MIC [6, 8] [µg/mL] | OVA-induced dermatitis, with ear edema inhibition rate of FK506 as 1.0 (OVA-induced dermatitis) | TNCB-induced dermatitis, with ear edema inhibition rate of FK506 as 1.0 (TNCB-induced dermatitis)
CCCCCCc1ccccc1C(=NN(C)C)n1ccnc1 [Compound No. 5, N′-[1-(2-hexylphenyl)-1-imidazol-1-ylmethylidene]-N,N-dimethylhydrazine] | – | – | – | – | – | – | – | 1.2 | 0.6
CCCCOc1ccccc1C(=NN(C)C)n1ccnc1 [Compound No. 23, N′-[1-(2-butoxyphenyl)-1-imidazol-1-ylmethylidene]-N,N-dimethylhydrazine] | 0.1 (≈ 0.349 µM) | 0.1 (≈ 0.349 µM) | 0.1 (≈ 0.349 µM) | 0.2 (≈ 0.698 µM) | 0.39 (≈ 1.36 µM) | 0.1 (≈ 0.349 µM) | 0.2 | – | –
CN(C)N=C(c1ccccc1OCCc1ccc(N(C)C)cc1)n1ccnc1 [Compound No. 60, N′-[1-imidazol-1-yl-1-[2-(4-dimethylaminophenethyloxy)phenyl]methylidene]-N,N-dimethylhydrazine] | 0.1 (≈ 0.265 µM) | 0.2 (≈ 0.53 µM) | 0.2 (≈ 0.53 µM) | 0.39 (≈ 1.03 µM) | 0.2 (≈ 0.53 µM) | 0.1 (≈ 0.265 µM) | 0.2 | – | –
COc1ccc(OCCOc2ccccc2C(=NN(C)C)n2ccnc2)cc1 [Compound No. 69, N′-[1-imidazol-1-yl-1-[2-[2-(4-methoxyphenoxy)ethoxy]phenyl]methylidene]-N,N-dimethylhydrazine] | 0.05 (≈ 0.131 µM) | 0.05 (≈ 0.131 µM) | 0.2 (≈ 0.526 µM) | 0.39 (≈ 1.03 µM) | 1.56 (≈ 4.1 µM) | 0.2 (≈ 0.526 µM) | 0.39 | – | –
CN(C)N=C(c1cccn1Cc1ccccc1)n1ccnc1 [Compound No. 105, N′-[1-(1-benzylpyrrol-2-yl)-1-imidazol-1-ylmethylidene]-N,N-dimethylhydrazine] | 0.2 (≈ 0.682 µM) | 0.2 (≈ 0.682 µM) | 0.2 (≈ 0.682 µM) | 0.39 (≈ 1.33 µM) | 25 (≈ 85.2 µM) | 0.39 (≈ 1.33 µM) | 0.78 | – | –
CCC(C)n1ncn(-c2ccc(N3CCN(c4ccc(OCC5COC(Cn6cncn6)(c6ccc(Cl)cc6Cl)O5)cc4)CC3)cc2)c1=O (stereo not shown) [ITCZ, itraconazole, reference compound] | 0.05 (≈ 0.0709 µM) | 0.1 (≈ 0.142 µM) | 0.1 (≈ 0.142 µM) | 0.2 (≈ 0.283 µM) | 0.05 (≈ 0.0709 µM) | 0.05 (≈ 0.0709 µM) | 25 | – | –

The next lines start with results.

MIC [1] [µg/mL] | MIC [2] [µg/mL] | MIC [3] [µg/mL] | MIC [4] [µg/mL] | MIC [5] [µg/mL] | MIC [6, 7] [µg/mL] | MIC [6, 8] [µg/mL] | SMILES | OVA-induced dermatitis, with ear edema inhibition rate of FK506 as 1.0 (OVA-induced dermatitis) | TNCB-induced dermatitis, with ear edema inhibition rate of FK506 as 1.0 (TNCB-induced dermatitis)
0.78 (≈ 3.22 µM) | 0.78 (≈ 3.22 µM) | 0.39 (≈ 1.61 µM) | 0.78 (≈ 3.22 µM) | > 25 | 0.39 (≈ 1.61 µM) | 0.78 | CCc1ccccc1C(=NN(C)C)n1ccnc1 [Compound No. 4, N′-[1-(2-ethylphenyl)-1-imidazol-1-ylmethylidene]-N,N-dimethylhydrazine] | – | –
0.2 (≈ 0.774 µM) | 0.2 (≈ 0.774 µM) | 0.2 (≈ 0.774 µM) | 0.39 (≈ 1.51 µM) | 12.5 (≈ 48.4 µM) | 0.39 (≈ 1.51 µM) | 0.39 | CCOc1ccccc1C(=NN(C)C)n1ccnc1 [Compound No. 16, N′-[1-(2-ethoxyphenyl)-1-imidazol-1-ylmethylidene]-N,N-dimethylhydrazine] | – | –
0.2 (≈ 0.734 µM) | 0.2 (≈ 0.734 µM) | 0.2 (≈ 0.734 µM) | 0.39 (≈ 1.43 µM) | 3.13 (≈ 11.5 µM) | 0.05 (≈ 0.184 µM) | 0.1 | CCCOc1ccccc1C(=NN(C)C)n1ccnc1 [Compound No. 17, N′-[1-imidazol-1-yl-1-(2-propoxyphenyl)methylidene]-N,N-dimethylhydrazine] | – | –
0.1 (≈ 0.37 µM) | 0.1 (≈ 0.37 µM) | 0.2 (≈ 0.74 µM) | 0.39 (≈ 1.44 µM) | 12.5 (≈ 46.2 µM) | 0.1 (≈ 0.37 µM) | 0.2 | C=CCOc1ccccc1C(=NN(C)C)n1ccnc1 [Compound No. 20, N′-[1-(2-allyloxyphenyl)-1-imidazol-1-ylmethylidene]-N,N-dimethylhydrazine] | – | –
0.2 (≈ 0.74 µM) | 0.2 (≈ 0.74 µM) | 0.2 (≈ 0.74 µM) | 0.39 (≈ 1.44 µM) | 6.25 (≈ 23.1 µM) | 0.2 (≈ 0.74 µM) | 0.2 | C/C=C\Oc1ccccc1C(=NN(C)C)n1ccnc1 [Compound No. 21, N′-[1-imidazol-1-yl-1-(2-(Z)-propenyloxyphenyl)methylidene]-N,N-dimethylhydrazine] | – | –
0.39 (≈ 1.31 µM) | 0.39 (≈ 1.31 µM) | 0.2 (≈ 0.671 µM) | 0.78 (≈ 2.62 µM) | 6.25 (≈ 21 µM) | 0.1 (≈ 0.335 µM) | 0.2 | CN(C)N=C(c1ccccc1OC(F)(F)F)n1ccnc1 [Compound No. 32, N′-[1-imidazol-1-yl-1-(2-trifluoromethoxyphenyl)methylidene]-N,N-dimethylhydrazine] | – | –
0.39 (≈ 1.18 µM) | 0.78 (≈ 2.36 µM) | 0.78 (≈ 2.36 µM) | 1.56 (≈ 4.72 µM) | 6.25 (≈ 18.9 µM) | 0.39 (≈ 1.18 µM) | 0.39 | CN(C)N=C(c1ccccc1OC(F)(F)C(F)F)n1ccnc1 [Compound No. 33, N′-[1-imidazol-1-yl-1-[2-(1,1,2,2-tetrafluoroethoxy)phenyl]methylidene]-N,N-dimethylhydrazine] | – | –
0.39 (≈ 1.42 µM) | 0.39 (≈ 1.42 µM) | 0.2 (≈ 0.729 µM) | 0.78 (≈ 2.84 µM) | 12.5 (≈ 45.6 µM) | 0.78 (≈ 2.84 µM) | 0.78 | CCSc1ccccc1C(=NN(C)C)n1ccnc1 [Compound No. 80, N′-[1-(2-ethylthiophenyl)-1-imidazol-1-ylmethylidene]-N,N-dimethylhydrazine] | – | –
0.2 (≈ 0.693 µM) | 0.39 (≈ 1.35 µM) | 0.2 (≈ 0.693 µM) | 0.39 (≈ 1.35 µM) | 3.13 (≈ 10.9 µM) | 0.39 (≈ 1.35 µM) | 0.39 | CCCSc1ccccc1C(=NN(C)C)n1ccnc1 [Compound No. 81, N′-[1-imidazol-1-yl-1-(2-propylthiophenyl)methylidene]-N,N-dimethylhydrazine] | – | –
